Tests used:
[1] = target: T1, SMO-1 (Caenorhabditis elegans, UniProt P55853); experiment: NMR titration (15N-HSQC chemical shift perturbation) of SMO-1 with SIM peptides; type: binding; set-up: inferred from pET15b vector with NdeI/BamHI and Ni-NTA purification) (N); made in house; host or cells: E. coli BL21(DE3)
[2] = target: T1, SMO-1; experiment: In vitro SMO-1 conjugation assay with FITC-labelled synthetic peptide substrate (human Aos1/Uba2 E1, human Ubc9 E2); type: biochemical, C. elegans; set-up: inferred from pET15b vector with NdeI/BamHI and Ni-NTA purification) (N); made in house; settings: 10mM of peptide, 50 μM SMO-1 or SUMO1, 1 μM E1, 2.5 μM E2, 1 mM ATP, 4°C, 12 hours, 20 mM Tris-Cl pH 8.5, 250 mM NaCl, 5 mM MgCl2, 0.1% v/v Tween 20; SDS-PAGE, FITC fluorescence 519 nm
Method: A synthetic peptide, sequence–[…] with Fluorescein iso-thiocyanate (FITC) label at the N-terminus was used as substrate. […] Reaction was carried out at 4°C for 12 hours. The reaction was started by adding 1 mM ATP. Reaction buffer contained 20 mM Tris-Cl pH 8.5, 250 mM NaCl, 5 mM MgCl2, 0.1% v/v Tween 20. […] Reaction buffer was the same as above. The reaction was carried out at 37°C for 4 hours. All reactions were stopped by adding reducing SDS loading dye. Reaction samples were run on 12% w/v SDS PAGE and analysed by probing FITC fluorescence at 519 nm wavelength (excitation wavelength– 495 nm).
To assess the ability of SMO-1 to be conjugated and deconjugated to substrates we developed an in vitro assay. […] As a substrate we used a synthetic peptide harbouring two consensus SUMOylation sites found in the IE2 protein (Fig 6A). To facilitate detection of SUMOylated peptide on SDS-PAGE gels we labelled the peptide with Fluorescein iso-thiocyanate (FITC) fluorophore. […] To verify, we carried out an in-vitro reaction with FITC tagged SMO-1.
(A) Sequence of FITC fluorophore labelled peptide used as substrate in in vitro SUMOylation assays. The lysines competent for SUMOylation are in bigger font and in bold face. All subsequent images were obtained by observing FITC fluorescence at 519 nm unless otherwise mentioned. […] The SDS-PAGE gel is imaged by observing YFP fluorescence. […]
Target sequence in this assay (P55853 1-90): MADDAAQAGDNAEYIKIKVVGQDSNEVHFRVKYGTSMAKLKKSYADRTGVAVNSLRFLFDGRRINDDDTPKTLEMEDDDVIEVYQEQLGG
Target sequence in this assay (P63279 whole entry, further chain): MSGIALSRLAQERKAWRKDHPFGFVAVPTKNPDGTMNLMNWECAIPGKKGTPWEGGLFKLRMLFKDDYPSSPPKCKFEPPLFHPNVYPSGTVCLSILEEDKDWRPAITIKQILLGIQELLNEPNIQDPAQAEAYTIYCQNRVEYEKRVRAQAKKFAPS

[3] = test system: substrate-polySMO-1 conjugates; experiment: In vitro SMO-1 deconjugation assay with SENP2 on SMO-1 chains from the peptide; type: biochemical; settings: 10μM SENP2 (human), same reaction mix as conjugation, 25°C, 2–3 hours; SDS-PAGE, FITC fluorescence
Method: (§1) Deconjugation Assays were performed by adding 10μM SENP2 to poly-SUMO1/2 and poly-SMO-1 chains in the same reaction mix used for conjugation. Deconjugation reaction was carried out at 25°C for 2–3 hours. Reactions were stopped by adding reducing SDS loading dye. Reaction samples were run on 12% w/v SDS PAGE and analysed by probing FITC fluorescence at 519 nm wavelength (excitation wavelength– 495 nm). SMO-1-YFP was checked for deconjugation in 50mM Tris-Cl pH 7.5 @ 25°C, 150mM NaCl, 1mM DTT reaction buffer. SENP2 was mixed with SMO-1-YFP and incubated at temperatures from 25–37°C for 6 hours. The reaction mix were then run separately on two SDS-PAGE gels for imaging using fluorescence and for staining with Coomassie Brilliant Blue R-250 Dye.
(§2) DeSUMOylation enzymes can cleave SUMO chains, making the process reversible to enable another level of control over the SUMOylation process.

[4] = test system: SMO-1-YFP; experiment: De-conjugation (maturation) assay of SMO-1-YFP with SENP2; type: biochemical, C. elegans; settings: 50mM Tris-Cl pH 7.5 @ 25°C, 150mM NaCl, 1mM DTT; 25–37°C, 6 hours; SDS-PAGE, YFP fluorescence and Coomassie
Method: as §1, §2

Molecule CC[C@H](C)[C@H](NC(=O)[C@H](CS)NC(=O)CNC(=O)[C@H](C)NC(=O)[C@@H](NC(=O)[C@@H](N)CC(=O)O)[C@@H](C)O)C(=O)N[C@H](C(=O)N[C@H](C(=O)N[C@@H](CO)C(=O)N[C@@H](CC(=O)O)C(=O)N[C@@H](CO)C(=O)N[C@@H](CCC(=O)O)C(=O)N[C@@H](CCC(=O)O)C(=O)N[C@@H](CCC(=O)O)C(=O)N[C@@H](CCC(N)=O)C(=O)NCC(=O)N[C@@H](CCC(=O)O)C(=O)N[C@@H](CCC(=O)O)C(=O)N[C@@H](Cc1c[nH]c2ccccc12)C(=O)O)[C@@H](C)CC)C(C)C [IE2-SIM] has a Kd [1] of 108 µM.

“PLIKQEDIKPEPDFTIQYRNKIIDTAGCIVISDSEEE [synthetic peptide, synthetic peptide harbouring two consensus SUMOylation sites found in the IE2 protein]” was tested, and the “SMO-1 conjugation on the substrate” value [2] was “Rapid SMO-1 conjugation was observed on the substrate”.

B1: SENP2: human deSUMOylation enzyme (protein, UniProt Q9HC62 1-589, looked up)
Sentrin-specific protease 2: MYRWLVRILGTIFRFCDRSVPPARALLKRRRSDSTLFSTVDTDEIPAKRPRLDCFIHQVKNSLYNAASLFGFPFQLTTKPMVTSACNGTRNVAPSGEVFSNSSSCELTGSGSWNNMLKLGNKSPNGISDYPKIRVTVTRDQPRRVLPSFGFTLNSEGCNRRPGGRRHSKGNPESSLMWKPQEQAVTEMISEESGKGLRRPHCTVEEGVQKEEREKYRKLLERLKESGHGNSVCPVTSNYHSSQRSQMDTLKTKGWGEEQNHGVKTTQFVPKQYRLVETRGPLCSLRSEKRCSKGKITDTETMVGIRFENESRRGYQLEPDLSEEVSARLRLGSGSNGLLRRKVSIIETKEKNCSGKERDRRTDDLLELTEDMEKEISNALGHGPQDEILSSAFKLRITRGDIQTLKNYHWLNDEVINFYMNLLVERNKKQGYPALHVFSTFFYPKLKSGGYQAVKRWTKGVNLFEQEIILVPIHRKVHWSLVVIDLRKKCLKYLDSMGQKGHRICEILLQYLQDESKTKRNSDLNLLEWTHHSMKPHEIPQQLNGSDCGMFTCKYADYISRDKPITFTQHQMPLFRKKMVWEILHQQLL
B1 was tested, and the “cleavage of SMO-1 chains from peptide by SENP2” value [3] was “could efficiently edit the SMO-1 chains from the peptide” and the “cleavage of SMO-1 from SMO-1-YFP by SENP2” value [4] was “could cleave SMO-1 from SMO-1-YFP”.

From PMC5646861 (PLoS ONE, 2017)
